# Data as given in patent publication US11459586B2, “Methods for increasing efficiency of nuclease-mediated gene editing in stem cells” (President and Fellows of Harvard College, priority 2016, dated 2022).
# Where two headings read alike, the source gives them in different places. Peptide text beside a SMILES is read from it. * marks the point of attachment. Cbz = O=C(OCc1ccccc1)*; CH2F = FC*
# Test system: human iPSC
# Assay type: cell-based
# Conditions: for rescue of hiPSC from cell death (anoikis) after nucleofection: viable cells two days after nucleofection, sgRNA plasmid or pUC19 control
# Protocol: FIGS. 10A-F. Effect of Caspase and p38 MAPK inhibitors on survival and gene targeting of human iPSC. FIG. 10A and FIG. 10B. Mouse Thy1 gene targeting scheme. Human iPSC were nucleofected with the mThy1 targeting vector, Cas9 nuclease, and Thy1 sgRNA expressing plasmid or pUC19 empty vector. Nucleofected cells were evenly divided and plated onto plain media (mTeSR1+10 μM Y-27632 ROCK inhibitor), or media supplemented with the indicated chemical inhibitor. For specific caspase inhibitors, the principal caspase they target is noted in parentheses. […] FIG. 10C. Two days after nucleofection, viable cells were counted. Error bars indicate s.e.m. of technical duplicates. Lines mark the count levels for nucleofected cells in plain media with or without sgRNA. FIG. 10D. Five days after transfection, cells were analyzed by flow cytometry for mThy1 and hThy1 expression. The percent of mThy1^+hThy1^− (bottom of each bar) and mThy1^+hThy1^+ (top of each bar) cells of live single cells is indicated. Lines mark the levels for cells in plain media. […] FIG. 10E. FACS plots of human iPSC transfected with the mThy1 targeting vector, Cas9 nuclease, and Thy1 Left and Right sgRNAs. Cells were subsequently cultured for 5 days in plain media±50 μM zVAD and ±10 μM SB203580. FIG. 10F. Human iPSC cultures were single cell FACS sorted into 96-well tissue culture plates containing a MEF feeder layer and hES media supplemented with SMC4 inhibitors±50 μM zVAD for eight days. Ten days after sorting, the number of surviving iPSC colonies was counted (from 190 cells sorted). PGP1 hiPSC lines created using retroviral vectors or non-integrating methods were both tested.
# Pluripotency of iPSC cultures was verified by flow cytometry staining using anti-human Tra-1/60 PE (TRA-1-60, BD) and anti-human Oct3/4 eFluor 660 (EM92, eBioscience) with the fixation buffer sold under the trademark BD CYTOFIX™ and permeabilization buffer sold under the trademark PHOSFLOW™ Perm/Wash buffers. Human g-band karyotype analysis was done by Cell Line Genetics. Viable cell counts were measured with the cell analyzer sold under the trademark MUSE® Count & Viability Assay kit (EMD Millipore). Anti-human HLA-A2 APC (BB7.2) and anti-human HLA-BC PE (B1.23.2) were purchased from eBioscience. Human iPSC cultures were treated with 50 ng/ml recombinant interferon gamma (eBioscience) for 2 days prior to HLA staining.
# Plasmids were purified using the plasmid DNA purification kit sold under the trademark Qiagen ENDOFREE® Plasmid Maxi kit and nucleofected into iPSC cells using the Lonza 4D-Nucleofector X unit (Buffer P3, Program CB-150). For each 20 μl nucleofection reaction, 0.2-0.5×106 iPSC were transfected with up to 4 μg of plasmid DNA. Post-nucleofection, iPSC were plated onto solubilized basement membrane matrix secreted by Engelbreth-Holm-Swarm (EHS) mouse sarcoma cells sold under the trademark […]®-coated wells containing feeder-free cell culture medium sold under the trademark MTESR1™ media with 10 μM Y-27632 plus other chemical inhibitors when noted. Later experiments included 50 μM zVAD-fmk (Bachem) for 1 day and 10 μM SB203580 (Biovision) for 4-5 days post transfection (see FIGS. 5, 6, 11, and 12). For FIG. 6 (ssODN transfection), 200 ng/ml recombinant B 18R (eBioscience), was also added to the culture for 5 days post transfection.
# The following inhibitors were added to the hiPSC culture at the concentrations and time periods indicated in the Examples below. • 1. p53 or Bax inhibitors: cyclic pifithrin α (StemCell Technologies); pifithrin (Tocris); peptide V5, peptide control, iMAC1 and iMAC2 (EMD Millipore); N-acetyl cysteine and 4-hydroxy TEMPO (TEMPOL) (Sigma). • 2.
SMILES,rescue of hiPSC from cell death (anoikis) after nucleofection,"anoikis rescue (lower concentration, 25 μM)","toxicity to hiPSC (after nucleofection, higher concentration than 25 μM (FIG. 10C))","toxicity to hiPSC (lower concentration, 25 μM)"
COC(=O)CC[C@H](NC(=O)[C@H](C)NC(=O)OCc1ccccc1)C(=O)N[C@H](C(=O)N[C@@H](CC(=O)OC)C(=O)CF)C(C)C [zAEVD-fmk] (Cbz-AE(OMe)VD(OMe)-CH2F),prevented anoikis,–,–,–
COC(=O)CC[C@H](NC(=O)[C@H](CC(=O)OC)NC(=O)OCc1ccccc1)C(=O)N[C@H](C(=O)N[C@@H](CC(=O)OC)C(=O)CF)C(C)C [zDEVD-fmk],prevented anoikis,did not show as much anoikis rescue,–,–
COC(=O)CC[C@H](NC(=O)[C@H](CC(C)C)NC(=O)OCc1ccccc1)C(=O)N[C@@H](Cc1cnc[nH]1)C(=O)N[C@@H](CC(=O)OC)C(=O)CF [zLEHD-fmk] (Cbz-LE(OMe)HD(OMe)-CH2F),–,–,very toxic,did not show as much
COC(=O)C[C@H](NC(=O)[C@H](C)NC(=O)[C@@H](NC(=O)OCc1ccccc1)C(C)C)C(=O)CF [zVAD(OMe)-fmk] (Cbz-Val-Ala-Asp(OMe)-CH2F),"rescued cells transfected with an sgRNA, and also those transfected with the pUC19 control",–,–,–
